According to US10792303B2, “Compositions and methods for inducing beige or brown fat tissue” (Logick Energetics, priority 2015, dated 2020):

Test system: KS-483 cells
Assay: qPCR gene expression in KS-483 cells after compound stimulation
Format: cell-based
Conditions: 3 days stimulation, Indo 5 uM; for BMP-4 gene expression (control = 1) / BMP-7 gene expression (control = 1) / CD36 gene expression (control = 1) / CEBP gene expression (control = 1) / CIDEA gene expression (control = 1) / DKK2 gene expression (control = 1) / FABP-4 gene expression (control = 1) / FGF21 gene expression (control = 1) / LPL gene expression (control = 1) / LRP5 gene expression (control = 1) / O3FAR1 gene expression (control = 1) / PLIN1 gene expression (control = 1) / PPAR-γ gene expression (control = 1) / PRDM16 gene expression (control = 1) / PpargC1α/PGC-1α gene expression (control = 1) / SCD1 gene expression (control = 1) / SLC2A4 gene expression (control = 1) / WNT5a gene expression (control = 1) / WNT6 gene expression (control = 1) / WNT10a gene expression (control = 1) / WNT11 gene expression (control = 1) / Adipoq gene expression (control = 1) / CFD gene expression (control = 1) / Noggin gene expression (control = 1) / UCP-1 gene expression (control = 1): Pentosan 5 ug/ml; for BMP-2 gene expression (control = 1): Pentosan 0.05 ug/ml
Procedure: The genes in KS-483 cells were assessed for up- or downregulation after stimulation with compound. Briefly, KS-483 cells were cultured under standard culturing conditions in α-MEM medium supplemented with glutamax, penicillin/streptomycin and 10% heat-inactivated Foetal Calf Serum (FCS).
For gene-expression analysis cells were seeded at 9210 cells/cm2 in 6-wells culture plates (Costar). At day 4, when cells were confluent, cells were stimulated with compounds in the presence of 5 μg/ml vitamin C. After 72 hours stimulation, cells were washed with PBS and subsequently RNA from the cells was isolated in 1 ml TRIzol (Invitrogen) following a standard TRIzol isolation protocol. RNA concentration and purity was assessed on a Nanodrop 1000 (Thermo Scientific). Single strand cDNA was synthesized from the isolated mRNA using reverse transcriptase (RT). Subsequently, SYBR green real-time PCR, also known as qPCR, was used to quantify differential gene expression of selected genes normalized to the expression of the housekeeping gene beta-2 microglobulin (b2m). […] The qPCR protocol applied was as follows:
15 minutes at 95° C. to activate Taq DNA polymerase, inactivate reverse transcriptase and denaturate the cDNA template.
40 cycles of 15 seconds denaturation at 95° C., 30 seconds annealing at 55° C. and 30 seconds of extension at 72° C.
At the melting point, the two strands of DNA will separate and the fluorescence rapidly decreases. Presence of multiple melting point, pointing at contaminated end-products was verified.
The threshold cycle or CT value (the cycle at which a statistically significant increase in normalized fluorescence intensity is first detected) were determined and relative fold change of genes of interest compared to b2m was determined.
The control has an expression of 1; values higher than 1 imply up-regulation of the gene; values lower than 1 imply down-regulation of genes.

Compound | BMP-4 gene expression (control = 1) (1 ng c-DNA) | BMP-7 gene expression (control = 1) (1 ng c-DNA) | CD36 gene expression (control = 1) (1 ng c-DNA) | CEBP gene expression (control = 1) (1 ng c-DNA) | CIDEA gene expression (control = 1) (1 ng c-DNA) | DKK2 gene expression (control = 1) (1 ng c-DNA) | FABP-4 gene expression (control = 1) (1 ng c-DNA) | FGF21 gene expression (control = 1) (1 ng c-DNA) | LPL gene expression (control = 1) (1 ng c-DNA) | LRP5 gene expression (control = 1) (1 ng c-DNA) | O3FAR1 gene expression (control = 1) (1 ng c-DNA) | PLIN1 gene expression (control = 1) (1 ng c-DNA) | PPAR-γ gene expression (control = 1) (1 ng c-DNA) | PRDM16 gene expression (control = 1) (1 ng c-DNA) | PpargC1α/PGC-1α gene expression (control = 1) (1 ng c-DNA) | SCD1 gene expression (control = 1) (1 ng c-DNA) | SLC2A4 gene expression (control = 1) (1 ng c-DNA) | WNT5a gene expression (control = 1) (1 ng c-DNA) | WNT6 gene expression (control = 1) (1 ng c-DNA) | WNT10a gene expression (control = 1) (1 ng c-DNA) | also measured
COc1ccc2c(c1)c(CC(=O)O)c(C)n2C(=O)c1ccc(Cl)cc1 [Indo, Indomethacin] | 0.81 | 1.62 | 181.5 | 1.19 | 0.95 | 1.06 | 162.94 | 2.33 | 4.43 | 1.58 | 2.26 | 354.02 | 0.91 | 1.58 | 1.15 | 1.32 | 2.09 | 0.73 | 0.83 | 0.92 | WNT11 gene expression (control = 1) (1 ng c-DNA): 1.01; BMP-2 gene expression (control = 1) (10 ng c-DNA): 1.96; Adipoq gene expression (control = 1) (10 ng c-DNA): 251.30; CFD gene expression (control = 1) (10 ng c-DNA): 413.23; CIDEA gene expression (control = 1) (10 ng c-DNA): 1.86; Noggin gene expression (control = 1) (10 ng c-DNA): 2.25; O3FAR1 gene expression (control = 1) (10 ng c-DNA): 5.68; UCP-1 gene expression (control = 1) (10 ng c-DNA): 2.18
Pentosan polysulfate | 0.77 | 0.77 | 2.60 | 0.63 | 5.50 | 0.14 | 3.83 | 0.23 | 2.33 | 3.27 | 0.44 | 17.47 | 1.55 | 1.85 | 2.09 | 0.85 | 1.07 | 0.76 | 0.16 | 0.03 | WNT11 gene expression (control = 1) (1 ng c-DNA): 0.12; BMP-2 gene expression (control = 1) (10 ng c-DNA): 1.32; Adipoq gene expression (control = 1) (10 ng c-DNA): 32.00; CFD gene expression (control = 1) (10 ng c-DNA): 40.86; CIDEA gene expression (control = 1) (10 ng c-DNA): 9.19; Noggin gene expression (control = 1) (10 ng c-DNA): 3.56; O3FAR1 gene expression (control = 1) (10 ng c-DNA): 1.14; UCP-1 gene expression (control = 1) (10 ng c-DNA): 2.85
